According to patent US8080517B2, “Cell-permeable peptide inhibitors of the JNK signal transduction pathway” (Xigen SA, priority 2005, dated 2011):
Entries after “also recorded” stand apart in the source; their conditions may differ. Where a SMILES comes first, the peptide text is derived from it. [ ]: non-standard residue; d: D form.

Columns and labels:
[1] = system: βTC-3 cell cultures; assay type: cell-based
Method: The ability of the L- and D-enantiomeric forms of TAT and inventive TAT-IB1(s) peptides (“TAT-IB peptides”) to enter cells was evaluated. L-TAT, D-TAT, inventive L-TAT-IB1(s), and inventive D-TAT-IB1(s) peptides [SEQ ID NOs: 5, 6, 9 and 12, respectively] were labeled by N-terminal addition of a glycine residue conjugated to fluorescein. Labeled peptides (1 μM) were added to βTC-3 cell cultures, which were maintained as described in Example 3. At predetermined times cells were washed with PBS and fixed for five minutes in ice-cold methanol-acetone (1:1) before being examined under a fluorescence microscope. Fluorescein-labeled BSA (1 μM, 12 moles/mole BSA) was used as a control.
Little to no signal was present at 48 hours.
Fluorescent signals from these all-D retro-inverso peptides were still very strong 1 week later, and the signal was only slightly diminished at 2 weeks post treatment.

[2] = system: endogenous JNK activity in HepG2 cells; test: Inhibition of endogenous IL-1β-induced JNK activity in HepG2 cells, AlphaScreen all-in one well approach; assay type: cell-based; conditions: FIG. 6 panel d
Method: HepG2 cells were seeded at 3,000 cells/well the day prior the experiment. Then, increasing concentrations of either interleukin-1β [IL-1β(▪)] or tumor necrosis factor α[TNFα(●)] (a) were added to activate JNK for 30 minutes. Cells were lysed in 20 mM Hepes, 0.5% Tween pH 7.4 and processed for AlphaScreen JNK. (b) Z′ for the JNK activity induced by 10 ng/ml IL-1β and measured in 384 wells/plate (n=96). (c) Inhibition of endogenous IL-1β-induced JNK activity with chemical JNK inhibitors [staurosporin (∘) and SP600125 (●)]. (d) Effect of peptidic inhibitors L-TAT-IB1(s) according to SEQ ID NO: 9 [here abbreviated as L-JNKi (▪)) and D-TAT-IB1(s) according to SEQ ID NO: 11 (here abbreviated as D-JNKi (□)) and JBDs (●) (corresponds to L-JNKI without the TAT sequence)] on […] dependent JNK activity. All panels are representative of three independent experiments (n=3).
Methods: Alphascreen Kinase Assay
Principle: AlphaScreen is a non-radioactive bead-based technology used to study biomolecular interactions in a microplate format. The acronym ALPHA stands for Amplified Luminescence Proximity Homogenous Assay. […]
Kinase reagents (B-GST-cJun, anti P-cJun antibody and active JNKS) were first diluted in kinase buffer (20 mM Tris-HCl pH 7.6, 10 mM MgCl2, 1 mM DTT, 100 μM Na3VO4, 0.01% Tween-20) and added to wells (15 μl). […] AlphaScreen signal was analyzed directly on the Fusion or En Vision apparatus.

[3] = Noise trauma, hearing threshold shifts by auditory brainstem response; assay type: in vivo, guinea pigs
Method: D-TAT-IB1(s) was applied onto the round window membrane of the cochlea of 3 groups of guinea pigs (each group with 6 animals) in 2 microliters of a gel formulation of 2.6% buffered hyaluronic acid (Hylumed, Genzyme Corp.) at a concentration of 100 µM either 30 minutes before noise trauma (120 dB at 6 kHz during 30 minutes) or 30 minutes or 4 hours thereafter. Untreated ears served as control. Hearing threshold shifts were evaluated by auditory brainstem response measurements 20 minutes after noise trauma (temporary threshold shift, TTS) and 15 days following the trauma (permanent threshold shift, PTS). […] Thus, D-TAT-IB1 (s) is a very effective otoprotective compound in case of noise trauma.

[4] = system: WiDr cells; test: Irradiation (30 Gy) induced apoptosis; assay type: cell-based, human; conditions: 1 μM added 30 minutes before 30 Gy, analyzed 48 hours later
Method: JNK is also activated by ionizing radiation. To determine whether inventive TAT-IB(s) peptides would provide protection against radiation-induced JNK damage, “WiDr” cells were irradiated (30 Gy) in presence or absence of D-TAT, inventive L-TAT-IB1(s) or inventive D-TAT-IB1(s) peptides (1 μM added 30 minutes before irradiation). Control cells (CTRL) were not irradiated. Cells were analyzed 48 hours later by means of PI and Hoechst 3342 staining, as described above. N=3, SEM are indicated.

[5] = system: cortical neuronal culture; test: LDH release from cortical neuronal cultures following NMDA stimulation; assay type: cell-based, rat; conditions: 5 μM pre-treatment 30 min, 100 μM NMDA, 12 h
Method: The neuroprotective effect of the D-TAT-IB (generic)(s)/D-JNKI1 peptide (SEQ ID NO: 12) was evaluated in sister cultures pre-treated for 30 min with the indicated concentrations of peptides or MK-801 before continuous exposure to 100 μM NMDA.
Cortical neuronal culture. We dissected small pieces of cortex from the brains of two day old rat pups, incubated them with 200 units of papain for 30 min at 34° C., and then plated the neurons at densities of approximately 1×10^6 cells/plate on dishes pre-coated with 100 μg/ml poly-D-lysine. The plating medium consisted of B27/Neurobasal (Life Technologies, Gaithersburg, Md.) supplemented with 0.5 mM glutamine, 100 U/ml penicillin and 100 ug/ml streptomycin.
Lactate dehydrogenate (LDH) cytotoxicity assay. LDH released into the bathing medium 12, 24 and 48 h after NMDA administration was measured using the Cytotox 96 non-radioactive cytotoxicity assay kit (Promega, Wis.) (see FIG. 5).

stability inside the cells [1]: extremely stable inside the cells
SMILES: CC(C)C[C@@H](NC(=O)[C@@H](Cc1ccccc1)NC(=O)[C@H]1CCCN1C(=O)[C@@H](CCC(N)=O)NC(=O)[C@H](NC(=O)[C@H]1CCCN1C(=O)[C@@H](CCCNC(=N)N)NC(=O)[C@@H](CO)NC(=O)[C@@H](CCC(N)=O)NC(=O)[C@H](N)CC(=O)O)C(C)C)C(=O)N[C@H](CC(N)=O)C(=O)N[C@H](CC(C)C)C(=O)N[C@@H](C(=O)N[C@@H](C(=O)N1CCC[C@@H]1C(=O)N[C@H](CCCNC(=N)N)C(=O)N[C@H](CCCCN)C(=O)N1CCC[C@@H]1C(=O)N[C@H](CCCNC(=N)N)C(=O)N1CCC[C@@H]1C(=O)N1CCC[C@@H]1C(=O)N[C@H](CCCNC(=N)N)C(=O)N[C@H](CCCNC(=N)N)C(=O)N[C@H](CCCNC(=N)N)C(=O)N[C@H](CCC(N)=O)C(=O)N[C@H](CCCNC(=N)N)C(=O)N[C@H](CCCNC(=N)N)C(=O)N[C@H](CCCCN)C(=O)N[C@H](CCCCN)C(=O)N[C@H](CCCNC(=N)N)C(=O)NCC(=O)O)[C@H](C)O)[C@H](C)O [D-TAT-IB1(s)] (H-[dD][dQ][dS][dR][dP][dV][dQ][dP][dF][dL][dN][dL][dT][dT][dP][dR][dK][dP][dR][dP][dP][dR][dR][dR][dQ][dR][dR][dK][dK][dR]G-OH)
inhibition of endogenous JNK activity [2]: effectively inhibits JNK activity, even better than L-TAT-IB1(s) | protection against permanent hearing loss (PTS, 15 days) ([3]; 100 μM in hyaluronic acid gel on round window membrane 30 minutes before noise trauma (120 dB at 6 kHz, 30 minutes)): protects substantially against permanent hearing loss from noise trauma if applied preventively before the noise exposure | permanent threshold shift (PTS, 15 days) versus untreated control ears ([3]; 100 μM in hyaluronic acid gel on round window membrane 30 minutes or 4 hours after noise trauma): significantly lower; also recorded: protected against permanent hearing loss even if applied after exposure to excessive noise | dependence of the protective effect on time of administration after noise trauma ([3]; 30 minutes versus 4 hours after trauma): in a time-dependent fashion if administered after trauma; also recorded: stronger the earlier | prevention of irradiation induced apoptosis [4]: able to prevent irradiation induced apoptosis | degenerative changes due to NMDA exposure (LDH release above controls) [5]: completely inhibited | morphological appearance, number and distribution of the neurons [5]: indistinguishable from the controls
